We go through five compounds from patent publication US9242929B2, “Compounds as diacylglycerol acyltransferase inhibitors” (GlaxoSmithKline Intellectual Property (No.2) Limited, priority 2011, dated 2016).

Molecules are shown by their SMILES.

This assay deals with T1, Human DGAT1 (Homo sapiens, UniProt O75907).
T1 construct: made in house; host or cells: Sf9 insect cells (baculovirus), microsomes
T1 sequence (O75907 1-488): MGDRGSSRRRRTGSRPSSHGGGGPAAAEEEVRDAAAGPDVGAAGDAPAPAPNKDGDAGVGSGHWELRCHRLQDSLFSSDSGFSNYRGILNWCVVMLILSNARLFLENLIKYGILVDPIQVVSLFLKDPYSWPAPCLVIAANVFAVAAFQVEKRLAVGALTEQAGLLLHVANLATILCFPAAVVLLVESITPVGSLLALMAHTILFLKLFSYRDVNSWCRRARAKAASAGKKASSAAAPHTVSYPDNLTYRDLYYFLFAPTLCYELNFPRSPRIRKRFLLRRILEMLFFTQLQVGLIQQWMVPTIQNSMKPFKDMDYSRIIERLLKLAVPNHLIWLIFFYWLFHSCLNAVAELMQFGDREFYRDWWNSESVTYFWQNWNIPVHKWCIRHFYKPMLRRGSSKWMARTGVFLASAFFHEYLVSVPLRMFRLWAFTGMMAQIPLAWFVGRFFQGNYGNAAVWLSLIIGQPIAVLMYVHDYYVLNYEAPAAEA
Description: human DGAT1 fluorescence (CPM) assay, inhibition of CoA product formation. To be noted: human DGAT1 fluorescene (CPM) assay; microsomes from Sf9 insect cells; read-out: hDGAT IC50. It counts as biochemical. The method, then: Human DGAT1 was expressed in Sf9 insect cells using a baculovirus expression system. Microsomes were prepared and used as enzyme for in vitro inhibition testing in either of two formats measuring production of coenzyme A or tridecanoylglycerol product, respectively. All steps were performed at 21-23° C. All data for DGAT1 inhibition by test compounds were collected under conditions where product formation was linear with reaction time.
An equal volume (10 uL) of 3× enzyme in buffer was added and the components incubated for 30 minutes pre-reaction incubation to allow enzyme and test compounds to attain binding equilibrium. […] Some assays were performed with inclusion of didecanoylglycerol in the pre-reaction incubation of test compound and enzyme. DGAT reactions (30 uL) were initiated upon addition of 10 uL of 3× substrate solution. Final reaction conditions consisted of 20 mM HEPES pH 7.5, 2 mM MgCl2, 1 mM CHAPS, 50 uM didecanoylglycerol, 3 uM decanoyl-CoA, 1 ug/mL microsomal protein, and 1% DMSO. Following a 60 minute reaction incubation, reactions were stopped and CoA product derivatized with 30 uL of buffer containing 10 uM {4-[4-(4-amino-7,7-dimethyl-7H-pyrimido[4,5-b][1,4]oxazin-6-yl)phenyl]cyclohexyl}acetic acid and 50 uM 7-diethylamino-3-(4′-maleimidylphenyl)-4-methylcoumarin (CPM). […] IC50s were fitted using GraphPad Prism to a sigmoidal dose response.
As a reminder, the IC50 is the concentration at which inhibition is half-maximal. `O=C(O)CC1(O)CCc2cc(-c3ccc(NC(=O)Nc4cccc(C(F)(F)F)c4)cc3)ccc2C1=O` (centres unmarked) [Example 185, 2-{2-hydroxy-1-oxo-6-[4-({[3-(trifluoromethyl)phenyl]carbamoyl}amino)phenyl]-1,2,3,4-tetrahydronaphthalen-2-yl}acetic acid]: the half-maximal inhibitory concentration (IC50) came out at 32 nM.
For the compound `CCC1(CC(=O)O)CCc2cc(-c3cnc(NC(=O)Nc4ccccc4)cn3)ccc2C1=O` (centres unmarked) [Example 154], the IC50 was found to be 47.8 nM.
The result for `O=C(O)CC1(CC(F)(F)F)CCc2cc(-c3cnc(NC(=O)Nc4ccc(F)c(F)c4)cn3)ccc2C1=O` (centres unmarked) [Example 215, 2-(6-(5-(3-(3,4-Difluorophenyl)ureido)pyrazin-2-yl)-1-oxo-2-(2,2,2-trifluoroethyl)-1,2,3,4-tetrahydronaphthalen-2-yl)acetic acid] reads 1.8 nM.
The same measure for `CCC1(CC(=O)O)CCc2cc(-c3ccc(NC(=O)Nc4cccc(Cl)c4)c(F)c3)ccc2C1=O` (centres unmarked) [Example 144]: 5.8 nM; for `CC(C)(C(=O)O)C1CCc2cc(-c3ccc(NC(=O)Nc4cccc(C(F)(F)F)c4)cc3)ccc2C1=O` (centres unmarked) [Example 76, 2-methyl-2-{1-oxo-6-[4-({[3-(trifluoromethyl)phenyl]carbamoyl}amino)phenyl]-1,2,3,4-tetrahydronaphthalen-2-yl}propanoic acid]: 112 nM.
